According to article PMC6027421 (Pharmaceuticals, 2018):
Like-named read-outs stand apart in the source and are kept apart here.

Experiments:
CYP17A1_WT [1] = biological target: T1, CYP17A1_WT (Homo sapiens, UniProt P05093); experiment: Inhibition of PROG 17α-hydroxylation, WT CYP17A1; assay type: biochemical
T1 sequence (P05093 1-508): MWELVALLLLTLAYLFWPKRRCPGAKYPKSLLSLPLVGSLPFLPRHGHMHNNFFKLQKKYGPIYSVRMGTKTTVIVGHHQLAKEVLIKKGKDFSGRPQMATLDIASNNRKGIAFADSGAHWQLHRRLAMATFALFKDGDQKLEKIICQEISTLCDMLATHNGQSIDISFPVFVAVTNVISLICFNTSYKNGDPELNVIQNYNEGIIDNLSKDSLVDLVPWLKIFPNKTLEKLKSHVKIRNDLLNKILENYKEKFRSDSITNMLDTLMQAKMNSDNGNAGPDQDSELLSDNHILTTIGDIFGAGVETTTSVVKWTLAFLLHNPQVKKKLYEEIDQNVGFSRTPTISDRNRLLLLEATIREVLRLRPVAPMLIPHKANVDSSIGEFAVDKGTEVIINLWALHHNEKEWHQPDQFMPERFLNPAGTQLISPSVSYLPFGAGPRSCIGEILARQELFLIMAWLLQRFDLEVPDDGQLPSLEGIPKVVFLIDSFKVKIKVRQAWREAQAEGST
Experimental: (§1) To assess 17α-hydroxylase activity, 10 pmol of CYP17A1 along with 20 pmol purified human POR [17, 31, 32, 34, 62] […] Enzyme kinetic calculations were performed using non-linear regression curve fitting with Prism (GraphPad Software Inc., San Diego, CA, USA). Data represent the mean of three independent experiments.

CYP17A1_WT [2] = biological target: T1, CYP17A1_WT; experiment: Spectral substrate/inhibitor-binding assay, WT CYP17A1; conditions: 50 nM protein, 22 °C
Experimental: Binding of steroid substrates to CYP17A1 was measured by recording the substrate-binding spectra in the range of 340–500 nm on a Perkin Elmer Lambda 25 spectrophotometer. A change in heme absorbance is observed when water molecules at the active site are replaced by steroid substrates. […] To accurately measure the tight binding substrates and inhibitors, a cuvette with 100 mm path length was employed and protein concentration was kept at 50 nM. […] All substrates and abiraterone were dissolved in ethanol and an equal amount of ethanol was added to the reference cuvette and the final concentration of ethanol added to the cuvettes was kept below 2%. After each addition of the compounds, cuvettes were incubated for 5 min at 22 °C before recording the spectra. […] Data were fitted with GraphPad Prism based on the tight binding pattern of substrates to a single binding site.

CYP17A1 WT [3] = conditions: 17OH-PREG as substrate, with cytochrome b5
CYP17A1 WT [4] = tested on: T2, CYP17A1 WT; experiment: 17α-hydroxylase enzyme kinetics (PROG to 17OH-PROG), WT CYP17A1; assay type: biochemical, human
T2 construct: (His)4; made in house; host or cells: E. coli JM109
Experimental: as §1

SMILES | IC50 (CYP17A1_WT [1]) [nM] | Kd (CYP17A1_WT [2]; Kd) [nM] | Vmax, 17,20 Lyase 17OH-PREG to DHEA (CYP17A1 WT [3]) [min⁻¹] | Km (CYP17A1 WT [3]; read-out: Km, 17,20 Lyase 17OH-PREG to DHEA) [µM] | Vmax, 17α-Hydroxylase PROG to 17OH-PROG (CYP17A1 WT [4]; PROG as substrate) [min⁻¹] | Km (CYP17A1 WT [4]; read-out: Km, 17α-Hydroxylase PROG to 17OH-PROG, PROG as substrate, CYP17A1:POR 1:2, 37 °C) [µM] | Cat Eff, 17α-Hydroxylase PROG to 17OH-PROG (CYP17A1 WT [4]; relative to WT) [%] | Kd (CYP17A1_WT [2]; read-out: Kd) [nM]
CC(=O)[C@@]1(O)CC[C@H]2[C@@H]3CC=C4C[C@@H](O)CC[C@]4(C)[C@H]3CC[C@@]21C [17OH-PREG, 17α-hydroxypregnenolone] | 1700 ± 200 | 142 ± 38 | 0.025 ± 0.004 | 0.92 ± 0.07 |  |  |  | 
CC(=O)[C@H]1CC[C@H]2[C@@H]3CCC4=CC(=O)CC[C@]4(C)[C@H]3CC[C@]12C [PROG, Progesterone] |  |  |  |  | 0.71 | 6.1 ± 0.7 | 100 | 163 ± 29
CC(=O)[C@H]1CC[C@H]2[C@@H]3CC=C4C[C@@H](O)CC[C@]4(C)[C@H]3CC[C@]12C [PREG, pregnenolone] | 900 ± 150 |  |  |  |  |  |  | 62 ± 17
C[C@]12CC[C@H](O)CC1=CC[C@@H]1[C@@H]2CC[C@]2(C)C(c3cccnc3)=CC[C@@H]12 [Abiraterone, abiraterone] | 40 ± 10 |  |  |  |  |  |  | 85 ± 23
